Measurements reported in ChEMBL document CHEMBL1201862, “PubChem BioAssay data set” (2004).
Values belong to the compound of their own block, whether it stands above or below them. The source made the active and inactive calls.

How the values were obtained:
[1] = viability of uninfected HEp-2 cells – cell-based, HTS, cytotoxicity control for RSV inhibitor project, dose response (AID 2410); assay type: functional; conditions: human respiratory syncytial virus
[2] = molecular target: T1, G-protein coupled receptor 35 (Homo sapiens, UniProt Q9HC97); assay: SAR analysis of Agonists of the GPR35 Receptor using an Image-Based Assay - Set 4. [Related pubchem assays (depositor defined):AID2013, AID2026]; assay type: functional
T1 sequence (Q9HC97 whole entry): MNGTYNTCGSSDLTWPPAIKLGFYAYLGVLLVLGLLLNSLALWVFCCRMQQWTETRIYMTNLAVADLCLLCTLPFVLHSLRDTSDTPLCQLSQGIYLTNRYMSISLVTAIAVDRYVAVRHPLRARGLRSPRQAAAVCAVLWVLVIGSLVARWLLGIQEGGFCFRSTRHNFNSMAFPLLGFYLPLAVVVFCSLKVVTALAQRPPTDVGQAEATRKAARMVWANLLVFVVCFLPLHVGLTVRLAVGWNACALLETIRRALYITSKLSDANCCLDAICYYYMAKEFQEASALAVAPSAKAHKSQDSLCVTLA

[3] = molecular target: G-protein coupled receptor 55 (Homo sapiens, UniProt Q9Y2T6); assay: SAR Analysis of Selective Antagonists of GPR55 using an Image-Based Assay - Set 4. [Related pubchem assays (depositor defined):AID2013, AID2026]; assay type: functional;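 note: antagonism of response to 5 µM lysophosphatidylinositol agonist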
Chain of G-protein coupled receptor 55 (Q9Y2T6 whole entry): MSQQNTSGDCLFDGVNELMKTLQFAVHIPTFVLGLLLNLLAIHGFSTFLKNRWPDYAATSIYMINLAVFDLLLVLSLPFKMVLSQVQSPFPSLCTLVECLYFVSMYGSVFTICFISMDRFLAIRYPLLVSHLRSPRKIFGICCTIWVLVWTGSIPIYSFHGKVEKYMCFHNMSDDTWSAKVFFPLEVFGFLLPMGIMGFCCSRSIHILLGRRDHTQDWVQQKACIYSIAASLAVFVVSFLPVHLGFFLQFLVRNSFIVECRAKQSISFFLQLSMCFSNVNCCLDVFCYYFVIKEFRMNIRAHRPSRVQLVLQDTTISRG

Cannabinoid receptor 1 [4] = molecular target: T2, Cannabinoid receptor 1 (Homo sapiens, UniProt P21554); assay: SAR analysis of antagonists of the Cannabinoid Receptor 1 using an Image-Based Assay - Set 4. [Related pubchem assays (depositor defined):AID2013, AID2026]; assay type: functional
T2 sequence (P21554 whole entry): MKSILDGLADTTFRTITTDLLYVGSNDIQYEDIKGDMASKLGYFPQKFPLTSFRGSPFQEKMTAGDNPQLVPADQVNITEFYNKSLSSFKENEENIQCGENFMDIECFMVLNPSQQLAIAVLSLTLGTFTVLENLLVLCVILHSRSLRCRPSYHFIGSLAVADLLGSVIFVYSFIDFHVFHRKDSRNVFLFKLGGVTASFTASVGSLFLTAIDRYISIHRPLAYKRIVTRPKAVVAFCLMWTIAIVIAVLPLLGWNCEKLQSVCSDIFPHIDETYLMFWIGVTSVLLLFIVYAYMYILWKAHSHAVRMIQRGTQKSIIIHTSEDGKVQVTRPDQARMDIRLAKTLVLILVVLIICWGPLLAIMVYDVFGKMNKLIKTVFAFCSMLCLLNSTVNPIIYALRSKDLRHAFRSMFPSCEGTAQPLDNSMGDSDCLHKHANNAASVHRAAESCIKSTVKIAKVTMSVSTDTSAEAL

[5] = molecular target: T3, Probable nicotinate-nucleotide adenylyltransferase (Staphylococcus aureus (strain N315), UniProt P65502); assay type: functional, Staphylococcus aureus subsp. aureus N315; conditions: read-out: IC50_Mean;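 for IC50 Mean: confirmatory dose-response retesting of NadD inhibitor hits first found in an ultra-high-throughput screen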
Cannabinoid receptor 2 [6] = molecular target: T4, Cannabinoid receptor 2 (Homo sapiens, UniProt P34972); assay: SAR analysis of antagonists of the Cannabinoid Receptor 2 using an Image-Based Assay - Set 3. [Related pubchem assays (depositor defined):AID2013, AID2026]; assay type: functional
T4 sequence (P34972 whole entry): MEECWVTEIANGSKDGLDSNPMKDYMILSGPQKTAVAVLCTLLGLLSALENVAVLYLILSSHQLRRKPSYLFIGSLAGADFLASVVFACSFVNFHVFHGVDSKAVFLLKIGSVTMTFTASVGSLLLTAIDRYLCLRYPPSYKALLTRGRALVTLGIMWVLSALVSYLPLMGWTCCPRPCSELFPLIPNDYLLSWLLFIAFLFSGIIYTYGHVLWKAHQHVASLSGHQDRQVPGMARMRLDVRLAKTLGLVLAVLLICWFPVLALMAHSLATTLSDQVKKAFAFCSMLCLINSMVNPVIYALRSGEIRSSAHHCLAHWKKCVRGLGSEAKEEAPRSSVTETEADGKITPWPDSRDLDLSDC

Cannabinoid receptor 1 [7] = molecular target: T2, Cannabinoid receptor 1; assay: SAR analysis of agonists of the Cannabinoid Receptor 1 using an Image-Based Assay - Set 4. [Related pubchem assays (depositor defined):AID2013, AID2026]; assay type: functional
[8] = molecular target: T1, G-protein coupled receptor 35; assay: SAR analysis of Antagonists of the GPR35 Receptor using an Image-Based Assay - Set 6. [Related pubchem assays (depositor defined):AID2013, AID2026]; assay type: functional
[9] = molecular target: T3, Probable nicotinate-nucleotide adenylyltransferase; assay type: functional, Staphylococcus aureus subsp. aureus N315
Cannabinoid receptor 2 [10] = molecular target: T4, Cannabinoid receptor 2; assay: SAR analysis of agonists of the Cannabinoid Receptor 2 using an Image-Based Assay - Set 3. [Related pubchem assays (depositor defined):AID2013, AID2026]; assay type: functional
[11] = molecular target: Intestinal-type alkaline phosphatase (Mus musculus, UniProt P24822); assay: PubChem AID 488875; assay type: functional
Chain of Intestinal-type alkaline phosphatase (Mus musculus, UniProt P24822) (P24822 whole entry): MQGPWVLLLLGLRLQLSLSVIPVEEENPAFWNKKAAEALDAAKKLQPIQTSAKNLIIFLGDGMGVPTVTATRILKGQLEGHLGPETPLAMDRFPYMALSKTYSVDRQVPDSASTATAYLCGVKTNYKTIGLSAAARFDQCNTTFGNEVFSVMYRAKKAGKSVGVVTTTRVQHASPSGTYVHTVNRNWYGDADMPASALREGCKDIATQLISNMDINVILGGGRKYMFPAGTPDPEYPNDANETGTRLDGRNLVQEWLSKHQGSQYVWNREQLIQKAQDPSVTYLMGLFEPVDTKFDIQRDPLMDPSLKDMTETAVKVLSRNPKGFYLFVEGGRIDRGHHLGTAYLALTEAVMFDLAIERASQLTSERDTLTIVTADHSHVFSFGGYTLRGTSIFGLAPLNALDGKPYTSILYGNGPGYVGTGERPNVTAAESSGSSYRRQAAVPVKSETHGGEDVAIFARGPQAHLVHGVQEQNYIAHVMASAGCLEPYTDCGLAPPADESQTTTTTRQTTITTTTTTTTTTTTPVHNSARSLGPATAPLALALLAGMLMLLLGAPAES

[12] = molecular target: T5, Alkaline phosphatase, tissue-nonspecific isozyme (Homo sapiens, UniProt P05186); assay: activation of tissue-nonspecific alkaline phosphatase – biochemical, TNAP isozyme, human IAP uHTS hits, selectivity assay for human IAP activator project, dose response (AID 488886); assay type: functional;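 note: potency of compounds raising TNAP activity as a selectivity check on IAP activators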
T5 sequence (P05186 whole entry): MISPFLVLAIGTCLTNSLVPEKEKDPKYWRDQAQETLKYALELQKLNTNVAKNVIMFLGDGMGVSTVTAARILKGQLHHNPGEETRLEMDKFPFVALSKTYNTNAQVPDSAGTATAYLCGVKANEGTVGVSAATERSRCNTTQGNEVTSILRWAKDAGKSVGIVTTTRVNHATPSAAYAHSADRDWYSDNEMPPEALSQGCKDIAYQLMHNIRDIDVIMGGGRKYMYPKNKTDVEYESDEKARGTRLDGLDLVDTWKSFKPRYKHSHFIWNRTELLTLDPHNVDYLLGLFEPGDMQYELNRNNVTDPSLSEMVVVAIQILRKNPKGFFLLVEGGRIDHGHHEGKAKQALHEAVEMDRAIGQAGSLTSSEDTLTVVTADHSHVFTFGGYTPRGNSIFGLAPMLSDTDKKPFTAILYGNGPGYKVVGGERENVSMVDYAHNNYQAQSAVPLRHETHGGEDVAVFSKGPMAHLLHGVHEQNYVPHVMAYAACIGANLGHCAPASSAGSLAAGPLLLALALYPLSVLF

[13] = molecular target: T6, Intestinal-type alkaline phosphatase (Homo sapiens, UniProt P09923); assay: activation of human intestinal alkaline phosphatase – biochemical, luminescent, uHTS hits, set 2, dose response (AID 488817); assay type: functional;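 note: potency of activators that raise enzyme activity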
T6 sequence (P09923 whole entry): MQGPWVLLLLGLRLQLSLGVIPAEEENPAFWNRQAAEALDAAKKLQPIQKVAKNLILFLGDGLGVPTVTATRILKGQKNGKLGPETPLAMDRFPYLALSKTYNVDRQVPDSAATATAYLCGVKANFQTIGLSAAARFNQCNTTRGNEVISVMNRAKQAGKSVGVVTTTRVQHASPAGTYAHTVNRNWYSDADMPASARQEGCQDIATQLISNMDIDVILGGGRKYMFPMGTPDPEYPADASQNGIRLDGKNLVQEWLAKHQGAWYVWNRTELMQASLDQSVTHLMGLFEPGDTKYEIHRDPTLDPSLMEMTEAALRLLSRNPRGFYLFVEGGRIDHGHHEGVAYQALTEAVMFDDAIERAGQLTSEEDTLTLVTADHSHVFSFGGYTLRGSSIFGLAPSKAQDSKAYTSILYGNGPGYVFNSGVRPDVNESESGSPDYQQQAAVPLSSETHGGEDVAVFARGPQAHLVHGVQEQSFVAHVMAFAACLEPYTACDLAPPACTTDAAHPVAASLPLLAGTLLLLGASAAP

[14] = molecular target: T6, Intestinal-type alkaline phosphatase; assay: human intestinal alkaline phosphatase activators, dose response, biochemical, luminescence, uHTS hits (AID 463120); assay type: functional
[15] = molecular target: T7, Tyrosine-protein phosphatase non-receptor type 22 (Homo sapiens, UniProt Q9Y2R2); assay type: functional
T7 sequence (Q9Y2R2 whole entry): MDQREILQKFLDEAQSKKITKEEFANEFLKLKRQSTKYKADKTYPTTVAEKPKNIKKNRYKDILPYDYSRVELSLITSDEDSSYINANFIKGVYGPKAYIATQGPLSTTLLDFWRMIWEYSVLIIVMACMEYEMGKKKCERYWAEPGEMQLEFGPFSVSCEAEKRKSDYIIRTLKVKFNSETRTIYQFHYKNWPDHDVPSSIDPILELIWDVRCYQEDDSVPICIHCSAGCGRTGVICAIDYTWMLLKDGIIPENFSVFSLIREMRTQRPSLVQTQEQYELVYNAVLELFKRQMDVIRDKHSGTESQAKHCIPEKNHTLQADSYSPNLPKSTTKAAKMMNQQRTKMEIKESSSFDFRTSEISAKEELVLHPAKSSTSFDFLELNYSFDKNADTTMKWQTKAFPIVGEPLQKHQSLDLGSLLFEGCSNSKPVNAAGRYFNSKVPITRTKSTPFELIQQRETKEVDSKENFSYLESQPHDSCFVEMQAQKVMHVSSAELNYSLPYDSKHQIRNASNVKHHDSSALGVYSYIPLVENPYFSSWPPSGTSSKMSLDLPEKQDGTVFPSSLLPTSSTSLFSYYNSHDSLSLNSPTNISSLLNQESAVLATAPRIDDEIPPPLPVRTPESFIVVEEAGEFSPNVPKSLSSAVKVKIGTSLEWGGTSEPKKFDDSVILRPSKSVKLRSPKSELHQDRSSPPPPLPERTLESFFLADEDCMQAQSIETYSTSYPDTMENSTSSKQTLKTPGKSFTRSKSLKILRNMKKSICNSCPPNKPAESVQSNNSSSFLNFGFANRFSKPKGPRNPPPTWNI

[16] = molecular target: T8, Tyrosine-protein phosphatase non-receptor type 7 (Homo sapiens, UniProt P35236); assay type: functional
T8 sequence (P35236 whole entry): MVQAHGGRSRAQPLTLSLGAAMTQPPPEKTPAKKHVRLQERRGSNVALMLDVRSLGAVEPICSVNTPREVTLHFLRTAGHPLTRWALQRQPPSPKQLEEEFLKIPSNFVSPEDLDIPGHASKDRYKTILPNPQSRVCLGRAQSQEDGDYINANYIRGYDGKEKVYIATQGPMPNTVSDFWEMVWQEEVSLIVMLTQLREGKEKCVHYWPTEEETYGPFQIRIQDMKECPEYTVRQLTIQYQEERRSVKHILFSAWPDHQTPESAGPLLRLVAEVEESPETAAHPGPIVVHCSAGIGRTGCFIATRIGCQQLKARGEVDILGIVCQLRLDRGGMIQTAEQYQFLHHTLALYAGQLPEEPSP

[17] = molecular target: T7, Tyrosine-protein phosphatase non-receptor type 22; assay type: functional; remark: listed apart in the source

EC50 [2]: > 32 µM (inactive)
IC50 [3]: 7.7 µM (active)
IC50 (Cannabinoid receptor 1 [4]): 10.2 µM (inactive)
IC50 [5]: 21.6 µM (active)
IC50 (Cannabinoid receptor 2 [6]): > 32 µM (inactive)
EC50 (Cannabinoid receptor 1 [7]): > 32 µM (inactive)
IC50 [8]: > 32 µM (inactive)
IC50 [9]: 5.29 µM (active)
EC50 (Cannabinoid receptor 2 [10]): > 32 µM (inactive)
Compound: Cc1ccc(-c2cc(C(=O)Nc3ccc(S(=O)(=O)Nc4nccs4)cc3)c3ccccc3n2)c(C)c1
CC50 [1]: 24.3 µM (active)

EC50 [11]: 22.4 µM (active)
EC50 [12]: 38.8 µM (active)
EC50 [13]: 44.3 µM (active)
EC50 [14]: 39.8 µM (active)
Compound: CC(N=C(S)NC1CCC(C(C)(C)C)CC1)c1ccccc1 (configuration not stated)

IC50 [15]: > 79.4 µM (inactive)
IC50 [16]: > 79.4 µM (inactive)
IC50 [17]: > 79.4 µM (inactive)
Compound: COc1ccc(C2CC(c3ccc(C)cc3)=NN2C(=O)CCC(=O)O)cc1OC (configuration not stated)
